Assay results as given in patent US20190388406A1, “METHODS OF PREVENTION AND TREATMENT OF THROMBOSIS” (Portola Pharmaceuticals, Inc., priority 2018, published 2019).

Key:
[1] = test system: critically ill patients admitted to the intensive care unit (ICU); experiment: Occurrence of VTE in critically ill (ICU) patients, post hoc analysis of randomized trial; format: in vivo, human
Excerpt: (§1) A multi-center, double-blind, randomized controlled trial enrolled 7,513 patients hospitalized for an acute medical illness with the following eligibility criteria: (1) hospitalization for acute medical illness, including heart failure, respiratory failure, infection, ischemic stroke, or rheumatic disorder; (2) age≥75 years, age 60 to 74 years with D-dimer≥2×the upper limit of normal (ULN), or age 40 to 59 years with D-dimer≥2×ULN and history of VTE or cancer; (3) anticipated severe immobilization for ≥24 hours followed by moderate or severe immobilization for 3 or more days; and (4) anticipated hospitalization for 3 or more days. Patients were randomly allocated in a 1:1 ratio to extended-duration betrixaban (35 to 42 days) or standard-duration enoxaparin (10±4 days).
(§2) The present study is a post hoc analysis of the effect of betrixaban in critically ill patients admitted to the intensive care unit (ICU) during the index hospitalization and received extended-duration betrixaban. The study population included in the present analysis was subjects admitted to the ICU during the index hospitalization event.
(§3) The primary efficacy endpoint was the occurrence of VTE, defined as a composite of asymptomatic proximal DVT, symptomatic DVT, non-fatal pulmonary embolism (PE), or VTE-related mortality. Safety endpoints were the occurrence of major bleeding and clinically relevant non-major bleeding, defined according to the International Society on Thrombosis and Haemostasis (ISTH) criteria. (Schulman S, Kearon C, Subcommittee on Control of Anticoagulation of the S, Standardization Committee of the International Society on T, Haemostasis. Definition of major bleeding in clinical investigations of antihemostatic medicinal products in non-surgical patients. J Thromb Haemost. 2005; 3:692-694; and Kaatz S, Ahmad D, Spyropoulos AC, Schulman S, Subcommittee on Control of A. Definition of clinically relevant non-major bleeding in studies of anticoagulants in atrial fibrillation and venous thromboembolic disease in non-surgical patients: communication from the SSC of the ISTH. J Thromb Haemost. 2015; 13:2119-2126.) All events were adjudicated by an independent clinical events committee blinded to thromboprophylaxis allocation.
(§4) Baseline characteristics of study participants were compared between treatment arms using the chi-squared test for categorical variables and one-way analysis of variance (ANOVA) for continuous variables, respectively. We analyzed efficacy using a modified intention-to-treat (mITT) population, which included subjects who received at least one dose of study medication and had data on one or more of the efficacy components. The bleeding risk of thromboprophylaxis was analyzed with the actual regimen received in the safety population, which included all randomized patients who received at least one dose of study medication. […] Absolute risk difference and relative risk of betrixaban vs. enoxaparin group were calculated and compared using the chi-squared test. The Breslow-Day test of homogeneity was performed to assess the effect modification by ICU admission on the thromboprophylaxis. All analyses were performed using two-sided tests at a significance level of 0.05 with SAS software version 9.4 (SAS Institute, Inc., North Carolina, United States).

[2] = test system: critically ill patients admitted to the intensive care unit (ICU); experiment: Occurrence of major bleeding (ISTH) in critically ill (ICU) patients; format: in vivo
Excerpt: as §1, §2, §3, §4

[3] = test system: critically ill patients admitted to the intensive care unit (ICU); experiment: Occurrence of major or clinically relevant non-major bleeding (ISTH) in critically ill (ICU) patients; format: in vivo
Excerpt: as §1, §2, §3, §4

[4] = test system: non-critically ill patients; experiment: Occurrence of VTE in non-critically ill patients; format: in vivo, human
Excerpt: as §1, with “Patients were randomly allocated in a 1:1 ratio to extended-duration betrixaban (35 to 42 days) or standard-duration enoxaparin (10±4 days).” left out
as §4, with “The Breslow-Day test of homogeneity was performed to assess the effect modification by ICU admission on the thromboprophylaxis. All analyses were performed using two-sided tests at a significance level of 0.05 with SAS software version 9.4 (SAS Institute, Inc., North Carolina, United States).” left out

[5] = test system: non-critically ill patients; experiment: Occurrence of major bleeding in non-critically ill patients; format: in vivo
Excerpt: as §1, with “Patients were randomly allocated in a 1:1 ratio to extended-duration betrixaban (35 to 42 days) or standard-duration enoxaparin (10±4 days).” left out
as §4, with “The Breslow-Day test of homogeneity was performed to assess the effect modification by ICU admission on the thromboprophylaxis. All analyses were performed using two-sided tests at a significance level of 0.05 with SAS software version 9.4 (SAS Institute, Inc., North Carolina, United States).” left out

[6] = Exposure of betrixaban on co-administration with a Pgp inhibitor; format: in vivo; settings: concomitant Pgp inhibitor
[7] = full-dose stratum (betrixaban 80 mg daily vs. enoxaparin 40 mg daily), end of study through 77 days
[8] = full-dose stratum (betrixaban 80 mg daily vs. enoxaparin 40 mg daily), end of study through 77 days, listed as betrixaban
[9] = full-dose stratum (betrixaban 80 mg daily vs. enoxaparin 40 mg daily), through 42 days
[10] = full-dose stratum, through 42 days
[11] = full-dose stratum, through 77 days
[12] = mITT population, end of extended thromboprophylaxis through 42 days
[13] = mITT population, end of study through 77 days
[14] = mITT population, through 42 days
[15] = mITT population, through 77 days
[16] = full-dose stratum (betrixaban 80 mg daily vs. enoxaparin 40 mg daily), through 7 days after discontinuation
[17] = full-dose stratum (betrixaban 80 mg daily vs. enoxaparin 40 mg daily), through 7 days after discontinuation, listed as betrixaban
[18] = full-dose stratum, through 7 days after discontinuation
[19] = safety population, end of study through 77 days
[20] = safety population, end of study through 77 days, listed as betrixaban
[21] = safety population, through 7 days after discontinuation
[22] = safety population, through 7 days after discontinuation of study medication
[23] = safety population, through 7 days after discontinuation of study medication, listed as betrixaban
[24] = safety population, through 77 days

## COc1ccc(NC(=O)c2ccc(C(=N)N(C)C)cc2)c(C(=O)Nc2ccc(Cl)cn2)c1 [Betrixaban, N-(5-chloropyridin-2-yl)-2-(4-(N,N-dimethylcarbamimidoyl)benzamido)-5-methoxybenzamide]
[1]; critically ill patients, end of extended thromboprophylaxis through 42 days
  reduction of the risk of VTE compared with enoxaparin: 46%
[1]; critically ill patients, end of study through 77 days
  relative risk reduction of VTE compared with enoxaparin: 52%
[1]; critically ill patients, vs. enoxaparin
  risk reduction in the VTE components (asymptomatic proximal DVT, symptomatic DVT, non-fatal PE, VTE-related death): did not reach statistical difference
[1]; [7]
  VTE events / patients (n/N): 9/214
  risk of VTE (rate): (4.21%)
[1]; [8]
  risk of VTE (rate): 4.21%
[1]; [9]
  VTE events / patients (n/N): 9/271
  risk of VTE (rate): (3.32%)
[1]; full-dose stratum (betrixaban 80 mg daily vs. enoxaparin 40 mg daily), through 42 days, listed as betrixaban
  risk of VTE (rate): 3.32%
[1]; [10]
  VTE ARD (absolute risk difference) betrixaban vs. enoxaparin: −5.01%
  VTE NNT or NNH: 20
  VTE RR (relative risk) betrixaban vs. enoxaparin: 0.40
[1]; [11]
  VTE ARD (absolute risk difference) betrixaban vs. enoxaparin: −7.20%
  VTE NNT or NNH: 14
  VTE RR (relative risk) betrixaban vs. enoxaparin: 0.37
[1]; [12]
  VTE events / patients (n/N): 15/351
  risk of VTE (rate): (4.27%)
[1]; mITT population, end of extended thromboprophylaxis through 42 days, listed as betrixaban
  risk of VTE (rate): 4.27%
[1]; [13]
  VTE events / patients (n/N): 15/286
  risk of VTE (rate): (5.24%)
[1]; mITT population, end of study through 77 days, listed as betrixaban
  risk of VTE (rate): 5.24%
[1]; [14]
  VTE ARD (absolute risk difference) betrixaban vs. enoxaparin: −3.68%
  VTE NNT or NNH: 28
  VTE RR (relative risk) betrixaban vs. enoxaparin: 0.54
[1]; [15]
  VTE ARD (absolute risk difference) betrixaban vs. enoxaparin: −5.63%
  VTE NNT or NNH: 18
  VTE RR (relative risk) betrixaban vs. enoxaparin: 0.48
[2]; [7]
  major bleeding events / patients (n/N): 1/271
  risk of major bleeding (rate): (0.37%)
[2]; [8]
  risk of major bleeding (rate): 0.37%
[2]; [16]
  major bleeding events / patients (n/N): 0/271
  risk of major bleeding (rate): (0.00%)
[2]; [17]
  risk of major bleeding (rate): 0.00%
[2]; [18]
  major bleeding ARD betrixaban vs. enoxaparin: −3.26%
  major bleeding NNT or NNH: 31
[2]; [11]
  major bleeding ARD betrixaban vs. enoxaparin: −3.25%
  major bleeding NNT or NNH: 31
  major bleeding RR betrixaban vs. enoxaparin: 0.10
[2]; [19]
  major bleeding events / patients (n/N): 5/351
  risk of major bleeding (rate): (1.42%)
[2]; [20]
  risk of major bleeding (rate): 1.42%
[2]; [21]
  major bleeding ARD betrixaban vs. enoxaparin: −1.99%
  major bleeding RR betrixaban vs. enoxaparin: 0.36
[2]; [22]
  major bleeding events / patients (n/N): 4/351
  risk of major bleeding (rate): (1.14%)
[2]; [23]
  risk of major bleeding (rate): 1.14%
[2]; [24]
  major bleeding ARD betrixaban vs. enoxaparin: −1.98%
  major bleeding RR betrixaban vs. enoxaparin: 0.42
[3]; [7]
  major or clinically relevant non-major bleeding events / patients (n/N): 11/271
  risk of major or clinically relevant non-major bleeding (rate): (4.06%)
[3]; [8]
  risk of major or clinically relevant non-major bleeding (rate): 4.06%
[3]; [16]
  major or clinically relevant non-major bleeding events / patients (n/N): 9/271
  risk of major or clinically relevant non-major bleeding (rate): (3.32%)
[3]; [17]
  risk of major or clinically relevant non-major bleeding (rate): 3.32%
[3]; [18]
  major or clinically relevant non-major bleeding ARD betrixaban vs. enoxaparin: −0.30%
  major or clinically relevant non-major bleeding RR betrixaban vs. enoxaparin: 0.92
[3]; [11]
  major or clinically relevant non-major bleeding ARD betrixaban vs. enoxaparin: 0.07%
  major or clinically relevant non-major bleeding RR betrixaban vs. enoxaparin: 1.02
[3]; [19]
  major or clinically relevant non-major bleeding events / patients (n/N): 15/351
  risk of major or clinically relevant non-major bleeding (rate): (4.27%)
[3]; [20]
  risk of major or clinically relevant non-major bleeding (rate): 4.27%
[3]; [21]
  major or clinically relevant non-major bleeding ARD betrixaban vs. enoxaparin: 0.29%
  major or clinically relevant non-major bleeding RR betrixaban vs. enoxaparin: 1.09
[3]; [22]
  major or clinically relevant non-major bleeding events / patients (n/N): 13/351
  risk of major or clinically relevant non-major bleeding (rate): (3.70%)
[3]; [23]
  risk of major or clinically relevant non-major bleeding (rate): 3.70%
[3]; [24]
  major or clinically relevant non-major bleeding ARD betrixaban vs. enoxaparin: 0.58%
  major or clinically relevant non-major bleeding RR betrixaban vs. enoxaparin: 1.16
[4]; end of extended thromboprophylaxis
  reduction of VTE risk: 23%
[4]; end of study
  reduction of VTE risk: 24%
[5]
  rates of major bleeding, betrixaban vs. enoxaparin: no difference
[6]
  effect of Pgp inhibitor on exposure of betrixaban: increases the exposure

## Enoxaparin [reference compound]
[1]; [7]
  VTE events / patients (n/N): 26/228
  risk of VTE (rate): (11.40%)
[1]; full-dose stratum (betrixaban 80 mg daily vs. enoxaparin 40 mg daily), end of study through 77 days, listed as enoxaparin
  risk of VTE (rate): 11.40%
[1]; [9]
  VTE events / patients (n/N): 23/276
  risk of VTE (rate): (8.33%)
[1]; full-dose stratum (betrixaban 80 mg daily vs. enoxaparin 40 mg daily), through 42 days, listed as enoxaparin
  risk of VTE (rate): 8.33%
[1]; [12]
  VTE events / patients (n/N): 28/352
  risk of VTE (rate): (7.95%)
[1]; mITT population, end of extended thromboprophylaxis through 42 days, listed as enoxaparin
  risk of VTE (rate): 7.95%
[1]; [13]
  VTE events / patients (n/N): 31/285
  risk of VTE (rate): (10.88%)
[1]; mITT population, end of study through 77 days, listed as enoxaparin
  risk of VTE (rate): 10.88%
